Molecule `Cc1ccccc1Cc1nc(C(=O)Nc2ccc(C(F)(F)F)nc2)cs1` [Example 39] came in with a melting point of 140.2 to 141.3 °C.
Molecule `O=C(Nc1ccc(C(F)(F)F)nc1)c1csc(Cc2ccccc2F)n1` [Example 31] came in with a melting point of 104.8 to 107.7 °C.
In the case of `O=C(Nc1ccc(C(F)(F)F)cc1)c1csc(Nc2ccccc2Cl)n1` [Example 61], the melting point was 192.5 to 193.1 °C.
The same measure for `FC(F)(F)c1ccc2[nH]c(-c3csc(Nc4ccccc4C(F)(F)F)n3)nc2c1` [Example 72]: 211 to 212 °C; for `O=C(Nc1ccc(C(O)(C(F)(F)F)C(F)(F)F)cc1)c1csc(Nc2ccccc2F)n1` [Example 54]: 158 to 160 °C.
The molecule `COc1ccccc1Cc1nc(C(=O)Nc2ccc(C(F)(F)F)cc2)cs1` [Example 38] came in with a melting point of 107.2 to 108.2 °C.
The molecule `CC(C)c1ccc(NC(=O)c2csc(Cc3ccccc3Cl)n2)cc1` [Example 25] came in with a melting point of 85.4 to 92.7 °C.
On to `O=C(Nc1ccc(C(O)(C(F)(F)F)C(F)(F)F)cc1)c1csc(Cc2c(Cl)cccc2Cl)n1` [Example 43], for which the melting point lay within 197 to 197.8 °C.
`O=C(Nc1ccc(C(F)(F)F)cc1)c1csc(Nc2cccnc2Cl)n1` [Example 51]: the melting point fell in the range of 232.5 to 234.3 °C.

The melting point is the temperature, or range, at which the solid turns liquid.

Values taken from patent publication US20040157845A1, “Vanilloid receptor ligands and their use in treatments” (Amgen Inc., priority 2003, published 2004).
